ChEMBL document CHEMBL1201862, “PubChem BioAssay data set” (2004)
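96-well plates; 48 h exposure; 5 concentrations. Endpoints by linear interpolation between flanking doses. Not reached: highest tested concentration assigned. GI50 = concentration required for 50% inhibition of growth.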 The source made the active and inactive calls. Rule as the data show it: active = GI50 up to about 1.1 µM and inactive = higher.

How the values were obtained:
Experiment in all cases: NCI anticancer screen, dose series, 48 h
[1] = system: NCI-H23
[2] = system: HCT-15
[3] = system: SN12C
[4] = system: K562
[5] = system: SF-539
[6] = system: SK-MEL-28
[7] = system: SR
[8] = system: CCRF-CEM
[9] = system: MOLT-4
[10] = system: RPMI-8226
[11] = system: HOP-92
[12] = system: SF-295
[13] = system: IGROV-1
[14] = system: COLO 205
[15] = system: SK-MEL-2
[16] = system: ACHN
[17] = system: SK-MEL-5

Row | Structure (SMILES) | GI50 [1] | GI50 [2] | GI50 [3] | GI50 [4] | GI50 [5] | GI50 [6] | GI50 [7] | GI50 [8] | GI50 [9] | GI50 [10] | GI50 [11] | GI50 [12] | GI50 [13] | GI50 [14] | GI50 [15] | GI50 [16] | GI50 [17]
1 | Nc1ncnc2c(C3OC(CO)C(O)C3O)scc12 (stereo not drawn) | 0.152 µM (active) | 0.00278 µM | 0.373 µM (active) | 0.00262 µM (active) | 4.94 µM (inactive) | 0.873 µM (active) | 0.319 µM (active) | 0.0597 µM (active) | 0.0767 µM (active) | 0.00222 µM (active) | 0.0117 µM (active) | 0.129 µM (active) | 0.513 µM (active) | 0.026 µM (active) | 0.0431 µM (active) | 0.0877 µM (active) | 0.346 µM (active)
2 | Cc1c(C2Cc3ccccc3N2C(=O)/C=C\C(=O)O)c2ccccc2n1C (stereo not drawn) | 25.9 µM (inactive) | > 100 µM | 19.5 µM (inactive) | 36.4 µM (inactive) | 21.6 µM (inactive) | – | 30.1 µM (inactive) | 30.8 µM (inactive) | 27.7 µM (inactive) | – | 17.7 µM (inactive) | 24.4 µM (inactive) | 24.4 µM (inactive) | 17.1 µM (inactive) | 17.7 µM (inactive) | 38.6 µM (inactive) | 18.2 µM (inactive)
3 | CCOC(=O)c1nc2ccc([N+](=O)[O-])cc2c2c1CCO2 | > 100 µM (inactive) | > 100 µM | > 100 µM (inactive) | > 100 µM (inactive) | > 100 µM (inactive) | > 100 µM (inactive) | – | > 100 µM (inactive) | > 100 µM (inactive) | – | – | > 100 µM (inactive) | > 100 µM (inactive) | > 100 µM (inactive) | > 100 µM (inactive) | > 100 µM (inactive) | > 100 µM (inactive)
4 | O=C(Nc1cc(Cl)ccc1Cl)C(=O)C(c1cnc2ccccc2n1)[N+](=O)[O-] (stereo not drawn) | > 100 µM (inactive) | > 100 µM | > 100 µM (inactive) | > 100 µM (inactive) | > 100 µM (inactive) | > 100 µM (inactive) | > 100 µM (inactive) | > 100 µM (inactive) | > 100 µM (inactive) | > 100 µM (inactive) | > 100 µM (inactive) | > 100 µM (inactive) | > 100 µM (inactive) | > 100 µM (inactive) | – | > 100 µM (inactive) | > 100 µM (inactive)
5 | O=C1OC(c2ccccc2)=N/C1=C\c1c(O)cc(O)cc1O | > 100 µM (inactive) | 38 µM | > 100 µM (inactive) | 32.4 µM (inactive) | > 100 µM (inactive) | > 100 µM (inactive) | – | > 100 µM (inactive) | > 100 µM (inactive) | > 100 µM (inactive) | > 100 µM (inactive) | – | > 100 µM (inactive) | > 100 µM (inactive) | > 100 µM (inactive) | 53.2 µM (inactive) | > 100 µM (inactive)
6 | Cc1ccc(N2C(=O)/C(=C/c3ccc(N(CCC#N)CCC#N)cc3)N=C2COc2ccc(Cl)cc2Cl)cc1 | > 100 µM (inactive) | > 100 µM | > 100 µM (inactive) | > 100 µM (inactive) | > 100 µM (inactive) | > 100 µM (inactive) | > 100 µM (inactive) | > 100 µM (inactive) | > 100 µM (inactive) | > 100 µM (inactive) | – | > 100 µM (inactive) | > 100 µM (inactive) | > 100 µM (inactive) | > 100 µM (inactive) | > 100 µM (inactive) | > 100 µM (inactive)
7 | N#C/N=C(\N)NCCO | > 100 µM (inactive) | 38.7 µM | > 100 µM (inactive) | > 100 µM (inactive) | > 100 µM (inactive) | > 100 µM (inactive) | 30.7 µM (inactive) | – | > 100 µM (inactive) | > 100 µM (inactive) | > 100 µM (inactive) | > 100 µM (inactive) | > 100 µM (inactive) | 52.2 µM (inactive) | > 100 µM (inactive) | > 100 µM (inactive) | > 100 µM (inactive)
8 | C/N=c1\ss/c(=N\C(=S)N(C)C)n1C1CCCCC1 | > 31.6 µM (inactive) | > 31.6 µM | > 31.6 µM (inactive) | > 31.6 µM (inactive) | > 100 µM (inactive) | > 31.6 µM (inactive) | – | > 31.6 µM (inactive) | > 31.6 µM (inactive) | > 100 µM (inactive) | > 10 µM (inactive) | > 31.6 µM (inactive) | > 31.6 µM (inactive) | > 31.6 µM (inactive) | > 31.6 µM (inactive) | > 31.6 µM (inactive) | > 31.6 µM (inactive)
9 | Oc1cc(Cl)ncn1 | > 100 µM (inactive) | > 100 µM | > 100 µM (inactive) | > 100 µM (inactive) | – | > 100 µM (inactive) | – | > 100 µM (inactive) | > 100 µM (inactive) | > 100 µM (inactive) | – | > 100 µM (inactive) | > 100 µM (inactive) | > 100 µM (inactive) | > 100 µM (inactive) | > 100 µM (inactive) | > 100 µM (inactive)
10 | Cc1c(C(=O)CC(=O)C(=O)NC2C3CC4CC(C3)CC2C4)[n+]([O-])c2ccccc2[n+]1[O-] (stereo not drawn) | > 100 µM (inactive) | > 100 µM | > 100 µM (inactive) | > 100 µM (inactive) | > 100 µM (inactive) | > 100 µM (inactive) | > 100 µM (inactive) | 90.6 µM (inactive) | > 100 µM (inactive) | > 100 µM (inactive) | > 100 µM (inactive) | > 100 µM (inactive) | > 100 µM (inactive) | > 100 µM (inactive) | > 100 µM (inactive) | > 100 µM (inactive) | > 100 µM (inactive)
11 | CNC(=O)CN1CC(=O)N(C)C(=O)C1 | > 100 µM (inactive) | > 100 µM | – | > 100 µM (inactive) | – | > 100 µM (inactive) | > 100 µM (inactive) | > 100 µM (inactive) | > 100 µM (inactive) | > 100 µM (inactive) | > 100 µM (inactive) | – | > 100 µM (inactive) | > 100 µM (inactive) | > 100 µM (inactive) | – | > 100 µM (inactive)
12 | CCOC(=O)c1cnc2sc3ccc4ccccc4c3n2c1=O | 62.5 µM (inactive) | 46.3 µM | 39.3 µM (inactive) | 37.6 µM (inactive) | 30.1 µM (inactive) | 98.6 µM (inactive) | 40.1 µM (inactive) | 25.1 µM (inactive) | 28.1 µM (inactive) | 27.9 µM (inactive) | 28.1 µM (inactive) | 58.9 µM (inactive) | 42.5 µM (inactive) | 79.3 µM (inactive) | 41.5 µM (inactive) | 33.1 µM (inactive) | 32.1 µM (inactive)
13 | CC(C)CCS(=O)(=O)OCCCCOS(=O)(=O)CCC(C)C | > 100 µM (inactive) | > 100 µM | > 100 µM (inactive) | > 100 µM (inactive) | > 100 µM (inactive) | > 100 µM (inactive) | > 100 µM (inactive) | > 100 µM (inactive) | > 100 µM (inactive) | > 100 µM (inactive) | – | > 100 µM (inactive) | > 100 µM (inactive) | > 100 µM (inactive) | – | > 100 µM (inactive) | –
14 | CC1CN1c1c(C(=O)/C=C/c2ccc(F)cc2)c(-c2ccccc2)nn(C)c1=O (stereo not drawn) | 14 µM (inactive) | > 10 µM | 15.4 µM (inactive) | > 10 µM (inactive) | > 10 µM (inactive) | 17.5 µM (inactive) | – | 13.8 µM (inactive) | 14.3 µM (inactive) | 9.46 µM (inactive) | 6.58 µM (inactive) | 16.2 µM (inactive) | 19.8 µM (inactive) | 18.5 µM (inactive) | 18.2 µM (inactive) | 16.3 µM (inactive) | 16 µM (inactive)
15 | CCC(=C(C#N)C#N)c1cc(OC)c(OC)c(OC)c1 | > 100 µM (inactive) | > 100 µM | > 100 µM (inactive) | > 100 µM (inactive) | > 100 µM (inactive) | > 100 µM (inactive) | > 100 µM (inactive) | > 100 µM (inactive) | > 100 µM (inactive) | 15.6 µM (inactive) | 95.1 µM (inactive) | – | > 100 µM (inactive) | > 100 µM (inactive) | > 100 µM (inactive) | > 100 µM (inactive) | > 100 µM (inactive)
16 | COc1ccc2c(c1)[n+]([O-])c(-c1ccc(C)cc1)c(N)[n+]2[O-] | 20.9 µM (inactive) | 45.8 µM | > 100 µM (inactive) | 67.1 µM (inactive) | 86.1 µM (inactive) | 89.5 µM (inactive) | > 100 µM (inactive) | – | – | 75.5 µM (inactive) | > 100 µM (inactive) | > 100 µM (inactive) | 43.3 µM (inactive) | 20.2 µM (inactive) | 40.6 µM (inactive) | 57.4 µM (inactive) | 35.8 µM (inactive)
17 | N#CC1(C#N)C(c2ccc(C3C(C#N)(C#N)C3(C#N)C#N)cc2)C1(C#N)C#N | > 100 µM (inactive) | > 100 µM | > 100 µM (inactive) | > 100 µM (inactive) | > 100 µM (inactive) | > 100 µM (inactive) | – | > 100 µM (inactive) | > 100 µM (inactive) | > 100 µM (inactive) | > 100 µM (inactive) | > 100 µM (inactive) | > 100 µM (inactive) | > 100 µM (inactive) | > 100 µM (inactive) | > 100 µM (inactive) | > 100 µM (inactive)
18 | CC1(C)Cc2c(C#N)c(N)c3c(c2CO1)C(=O)OC3=O | > 100 µM (inactive) | > 100 µM | > 100 µM (inactive) | > 100 µM (inactive) | > 100 µM (inactive) | > 100 µM (inactive) | > 100 µM (inactive) | > 100 µM (inactive) | > 100 µM (inactive) | > 100 µM (inactive) | – | – | > 100 µM (inactive) | > 100 µM (inactive) | > 100 µM (inactive) | > 100 µM (inactive) | > 100 µM (inactive)
